# Test results: patent US11638716B2, “Compounds, compositions, and methods for the treatment of disease” (F-star Therapeutics, Inc., priority 2017, dated 2023)
# Columns and labels:
# ISGs/type I IFN response = ISGs/type I IFN response in normal Balb/C mice after intravenous dosing; assay type: in vivo, mouse; settings: intravenously 9 mg/kg
# STING CTD = target: T1, STING CTD (Homo sapiens, UniProt Q86WV6, H232R); test: Thermal shift assay with STING CTD; assay type: binding; settings: 0.1 mg/mL STING CTD, compound 2 mM to 0.05 uM
# T1 construct: Thermal shift assay was conducted with 0.1 mg/mL of STING CTD
# Method: Fluorescence as a function of temperature was recorded using a Real Time PCR machine (Thermo Fisher). The temperature gradient was performed in the range of 25-80° C. with a ramp of 0.2° C. over the course of 60 minutes. Data was analyzed with the Thermal Shift Software (Thermo Fisher) and DSF analysis. The Derivative model was used to fit the fluorescence data to obtain the midpoint temperature for the thermal protein unfolding transition (Tm) using the curve-fitting software Prism.
# [1] = system: CT26 murine colon carcinoma; test: CT26 murine colon carcinoma model in female BALB/c mice; assay type: in vivo, mouse
# Method: Example 4: Study to Determine the Efficacy of Compound 4 in a CT26 Murine Colon Carcinoma Model Using Female BALB/c Mice
# The animals were fed ad libitum water (reverse osmosis, 1 ppm Cl) and a NIH 31 Modified and Irradiated Lab Diet consisting of 18.0% crude protein, 5.0% crude fat, and 5.0% crude fiber.
# CT26 murine colon carcinoma cells were grown in RPMI-1640 medium containing 10% fetal bovine serum, 2 mM glutamine, 100 units/mL penicillin G sodium, 100 μg/mL streptomycin sulfate, and 25 μg/mL gentamicin. The cells were cultured in tissue culture flasks in a humidified incubator at 37° C., in an atmosphere of 5% CO2 and 95% air.
# On the day of implantation, cultured CT26 cells were harvested during log phase growth and resuspended in phosphate buffered saline, pH 7.4 (PBS) at a concentration of 3×10^6 cells/mL. Each mouse was injected subcutaneously in the right flank with 3×10^5 tumor cells (0.1 mL cell suspension) and tumors were monitored as their volumes approached the target range of 80 to 120 mm^3. Eleven days after tumor cell implantation, on Day 1 of the study, animals were sorted into three groups (n=8/group) with individual tumor volumes of 63 to 126 mm^3, and a group mean tumor volume of 105 mm^3. Tumors were measured with a caliper twice weekly for the duration of the study. Tumor size was calculated using the formula:
# [formula] wherein w is width and 1 is length, in mm, of a tumor. Tumor weight may be estimated with the assumption that 1 mg is equivalent to 1 mm^3 of tumor volume. Test Articles
# Compound 4 was dissolved by adding the appropriate volume of sterile saline (vehicle) into each tube, vortexing, incubating at 37° C. for 2-5 minutes, followed by sonication, if needed. […] A fresh vial was prepared on each day of dosing.
# On Day 1 of the study, three groups of BALB/c mice (n=8) began dosing according to the protocol in FIG. 20. Compound 4 and vehicle were administered intravenously (i.v.). Group 1 received vehicle on Days 1, 5, 9, and 14. Groups 2 and 3 received CMD 4 at 1 and 3 mg/kg, respectively, on Days 1, 5, 9, and 14.
# The study endpoint was a tumor volume of 2000 mm^3 or Day 30, whichever came first. The study ended on Day 29. The study protocol specified a tumor growth delay assay based on the median time-to-endpoint (TTE) in a treated group versus the control group. Tumors were measured using calipers twice per week, and each animal was euthanized for tumor progression (TP) when its tumor reached the 2000 mm^3 volume endpoint. The TTE for each mouse was calculated with the following equation:
# [formula] where b is the intercept and m is the slope of the line obtained by linear regression of a log-transformed tumor growth data set. The data set is comprised of the first observation that exceeded the study endpoint volume and the three consecutive observations that immediately preceded the attainment of the endpoint volume. […] In instances in which the log-transformed calculated TTE preceded the day prior to reaching endpoint or exceeded the day of reaching tumor volume endpoint, a linear interpolation was performed to approximate TTE.
# On Day 29, MTV (n) was defined as the median tumor volume of the number of animals, n, that survived to the last day and whose tumors had not reached the volume endpoint. Any animal determined to have died from treatment-related (TR) causes was to be assigned a TTE value equal to the day of death. Any animal that died from non-treatment-related (NTR) causes was to be excluded from the analysis. Treatment outcome was evaluated from tumor growth delay (TGD), which was defined as the increase in the median TTE for a treatment group compared to the control group: TGD=T−C expressed in days, or as a percentage of the median TTE of the control group:
# [formula] wherein T is the median TTE for a treatment group and C is the median TTE for the control group. Tumor Growth Inhibition (TGI) Analysis […]
# [2] = target: T2, human wtSTING-CTD (with SUMO tag) (Homo sapiens, UniProt Q86WV6, H232R); test: Isothermal calorimetry against human wtSTING-CTD; assay type: binding; settings: 25° C., 1.5 mM compound titrated against 132.5 μM protein
# T2 construct: human wtSTING-CTD (with SUMO tag)
# Method: Isothermal Calorimetry was carried out on a MicroCal Itc200 at 25° C.
# [3] = system: RAW-Lucia-ISG-STING KO cells; test: IRF-type I IFN secreted luciferase in RAW-Lucia-ISG-STING KO cells; assay type: cell-based; settings: compound alone, 19 hours
# Method: FIG. 4 depicts RAW-Lucia-ISG-WT and RAW-Lucia-ISG-STING KO cells were stimulated with compound 2 or compound 4, alone for 19 hours. Activity of secreted luciferase (IRF-type I IFN activity) in cell culture supernatant was measured using Invivogen's Quanti-luc. Data is shown as fold induction over DMSO treated cells (mean±standard deviation of triplicate wells per stimulant). EC50 values were calculated using XLfit.
# THP1-STING KO cells = test: IRF activity in THP1-STING KO cells; assay type: cell-based; settings: compound alone, 20 hours
# R232H variant of hSTING = R232H variant of hSTING (Homo sapiens, UniProt Q86WV6); test: IRF/NF-kB reporter cells, STING R232H variant; assay type: cell-based; settings: 20 hours
# Method: FIG. 27 depicts cells stably expressing both or either one of the reporters to measure IRF and NF-kB activity were treated with a range of concentrations of compound 4 or DMSO control for 20 hours. IRF activity was assessed using QUANTI-luc to measure levels of Lucia and NF-kB activity was determined by measure SEAP levels at 620-655 nm. % induction was calculated from fold change in luminescence/absorbance compared to DMSO treated sample. EC50 values are generated by curve fit in Xlfit.
# Cells grown in complete media were treated with various concentrations of a compound of the disclosure or DMSO control. Dual cells carry both secreted embryonic alkaline phosphatase (SEAP) reporter gene under the control of an IFN-β minimal promoter fused to five copies of the NF-kB consensus transcriptional response element to measure NF-kB activity and Lucia reporter gene under the control of an ISG54 minimal promoter to measure IRF activity. After 20 h incubation, IRF activity was assessed using QUANTI-luc to measure levels of Lucia and NF-kB activity was determined by measure SEAP levels at 620-655 nm. % induction was calculated from fold change in luminescence/absorbance compared to DMSO treated sample. EC50 values are generated by curve fit in Xlfit.
# T2 sequence (Q86WV6 135-379 H232R): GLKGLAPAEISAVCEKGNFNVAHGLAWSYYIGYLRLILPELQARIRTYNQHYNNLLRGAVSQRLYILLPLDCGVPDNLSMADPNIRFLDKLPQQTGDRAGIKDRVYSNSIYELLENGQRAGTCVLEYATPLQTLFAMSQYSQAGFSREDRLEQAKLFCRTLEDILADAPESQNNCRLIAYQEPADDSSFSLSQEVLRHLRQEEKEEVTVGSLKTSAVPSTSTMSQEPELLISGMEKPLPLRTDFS
# T1 sequence (Q86WV6 135-379 H232R): as above
# Sequence of R232H variant of hSTING (Q86WV6 whole entry, stated change not applied): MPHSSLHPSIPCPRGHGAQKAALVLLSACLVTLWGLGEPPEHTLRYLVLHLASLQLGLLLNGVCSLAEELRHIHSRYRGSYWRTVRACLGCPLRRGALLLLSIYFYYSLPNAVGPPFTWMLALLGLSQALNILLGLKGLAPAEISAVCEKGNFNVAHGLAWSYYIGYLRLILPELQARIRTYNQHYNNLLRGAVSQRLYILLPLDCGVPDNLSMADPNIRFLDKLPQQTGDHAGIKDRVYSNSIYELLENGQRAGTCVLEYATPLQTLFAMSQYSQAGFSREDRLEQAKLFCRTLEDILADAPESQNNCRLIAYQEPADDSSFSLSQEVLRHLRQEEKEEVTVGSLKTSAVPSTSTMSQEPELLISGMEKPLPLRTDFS
binding to STING (thermal shift) (STING CTD),binding to STING (isothermal calorimetry) [2],Structure (SMILES),upregulation of ISGs/type I IFN response (ISGs/type I IFN response),tumor growth compared to the vehicle ([1]; intravenously at 3 mg/kg),IRF activity in STING KO cells [3],tumor growth compared to the vehicle ([1]; intravenously at 1 mg/kg and 3 mg/kg),individual times to endpoint vs vehicle group ([1]; treatment groups 1 and 3 mg/kg i.v.),"tumor growth inhibition compared to the vehicle group ([1]; treatment groups 1 and 3 mg/kg i.v., Days 1, 5, 9, 14, TGI on Day 18)","time to reach the endpoint, longer than vehicle group ([1]; treatment groups 1 and 3 mg/kg i.v., Days 1, 5, 9, 14, endpoint tumor volume 2000 mm^3)","tumor volume distribution on day 18 vs vehicle group ([1]; treatment groups 1 and 3 mg/kg i.v., day 18)","percent of mice remaining (Kaplan-Meier) vs vehicle group ([1]; treatment groups 1 and 3 mg/kg i.v., day 21)",IRF activity in THP1-STING KO cells (THP1-STING KO cells),activity against R232H variant of hSTING (R232H variant of hSTING)
bind to STING with high affinity,bind to STING with high affinity,N.N.Nc1ncnc2c1ncn2[C@@H]1O[C@@H]2COP(=O)(S)O[C@@H]3[C@H](F)[C@@H](COP(=O)(O)O[C@H]2[C@H]1F)O[C@H]3n1ccc(=O)[nH]c1=O (stereo partly shown) [Compound 3],strongly induced upregulation,Tumor growth was slowed,,,,,,,,,
,,CCCCCCCCCCOc1ccc(C(=O)Oc2ccc(CSP3(=O)OC[C@H]4O[C@@H](n5cnc6c(N)ncnc65)[C@H](F)[C@@H]4OP(=O)(O)OC[C@H]4O[C@@H](n5ccc(=O)[nH]c5=O)[C@H](O3)[C@@H]4F)cc2)cc1 (stereo partly shown) [Compound 4],,,Neither compound induced IRF activity,Tumor growth was slowed,took longer to reach the endpoint,at least 89%,at least 10 days,significantly smaller tumor volumes,greater percent of mice remaining,did not induced IRF activity,possess activity
